Measurements as given in patent publication US20250186405A1, “Compound For Use In Treating Narcolepsy” (Alkermes, Inc., priority 2023, published 2025).
Where “and” joins values, the source holds several entries; their conditions need not be identical. Identical values can stand only once. Like-named read-outs stand apart in the source and are kept apart here.

Assays:
[1] = Part 1 SAD: plasma pharmacokinetics after single oral dose; format: in vivo, human; details: for CL/F / AUC(0-t) / Cmax / AUC(0-inf) / half-life / Vd/F / concentration at 8 h: geometric mean; for AUC(0-t) / Cmax / AUC(0-inf) / half-life / Vd/F / concentration at 8 h / Tmax: human, plasma; for Vd/F: read-out: Vz/F; for concentration at 8 h: read-out: C8 (concentration at 8-hour post dose)
Procedure: There were approximately 8 subjects per cohort. Dose levels were as follows:
Blood samples (up to 5 mL per sample) were collected for PK analysis of Compound A and its metabolite(s). The actual time of sample collection was recorded. The PK samples of the subjects randomized to placebo treatment were not analyzed. Any remaining plasma PK samples were used to explore the presence of any additional metabolites and/or biomarkers.
Plasma and urine concentrations of Compound A and its metabolite(s) were measured using a validated high-performance liquid chromatography with tandem mass spectrometry.
The plasma PK parameters of Compound A and its metabolite(s) were determined from the plasma concentration-time profiles for all evaluable subjects. Actual sampling times, rather than scheduled sampling times, were used in all computations involving sampling times. The below lower limit of quantitation concentrations were set to zero prior to PK parameter estimation.
The PK population was used for summaries of plasma Compound A and its metabolite(s) concentrations and for analyses, summaries, and listing of PK parameters. Dose proportionality for Cmax, AUC0-t, and AUC0-∞ was evaluated using a linear model of logarithmically transformed values to assess the slope parameter, and the 95% CI for the slope was estimated. Where the 95% CI of the slope includes 1, it was considered as evidence of dose proportionality for that PK parameter.

[2] = tested on: subjects with idiopathic hypersomnia (IH); assay: Part 6 IH: Maintenance of Wakefulness Test (MWT) sleep latency; format: in vivo, human; details: for LS mean difference vs placebo in change from baseline, average MWT sleep latency: 2-8 hours post-dose; for Change from Day −1 in Average Sleep Latency on the MWT, LSM / Change from Day −1 in Average Sleep Latency on the MWT, LSM difference vs placebo: N = 8; for Average Sleep Latency on the MWT, Change from Day −1, Mean (SD) / Average Sleep Latency on the MWT, Change from Day −1, Median / Average Sleep Latency on the MWT, Dosing Day, Mean (SD) / Average Sleep Latency on the MWT, Dosing Day, Median: n = 8
Procedure: The Treatment Visit (Visit 2) began on Day −2, when each subject's eligibility criteria were reviewed, and eligible subjects were admitted to the clinic. Screening assessments and eligibility criteria review continued after admission until Day 1, prior to randomization and dosing. On Day −1, approximately 25 hours prior to study drug administration (on Day 1), baseline assessments for Maintenance of Wakefulness Test (MWT) began and were collected in a series of trials over approximately 10 hours.
At specified time points (Parts 5 and 6), MWT assessments were performed and took up to 40 minutes to complete. During the MWT trials, subjects were seated in a bed or reclining chair in a darkened room with their back and head supported such that their neck is not uncomfortably flexed or extended. Subjects were instructed to sit still and remain awake for as long as possible during each 40-minute trial. If the subject fell asleep during a trial, they were awakened, and the trial was terminated. […] Upon completion of the trial, the subject returned to a normal environment/ambiance and remained awake (and were awakened if they fall asleep) until the next trial.
Once Parts 5 and 6 were completed, the EEG data recorded during the MWT, as well as the technician notes, were transferred to the EEG vendor for further analysis. Technician notes were also maintained for transfer to Sponsor at the end of the study. A precise assessment of sleep latency was conducted by an experienced sleep scorer from the EEG vendor, and spectral analysis was performed on the EEG data recorded during MWT to assess absolute and relative powers in standard frequency bands (i.e., qEEG). All raw data and analysis results were transferred to the Sponsor.
For the changes from baseline in average sleep latency across the first 4 sessions of the MWT, descriptive statistics were provided by dose level. Mixed model with repeated measure (MMRM) for the 4-period crossover design were conducted with the change from baseline as a dependent variable, and the dose level and the period as fixed factors. The differences in the least square means between each Compound A dose level and the placebo (each Compound A dose level—the placebo), and the 2-sided CIs were provided.
Evaluation of Compound A effects on average sleep latency across 4 timepoints of MWT (2-, 4-, 6-, and 8-hours post-dose) has been conducted at each of the crossover periods (Days 1, 3, 5 and 7), testing placebo, and active dose levels of 5, 12, and 25 mg in the patients with IH compared to placebo. At pre-dose baseline on Day −1, MWT assessment was taken at similar times (2-, 4-, 6-, and 8-hours) as planned on dosing days assuming a dosing time of approximately 9 AM. Mean (SD) of baseline MWT average across the 4 time points on Day −1 was 22.61 (9.294), with high variability observed for IH subjects.

[3] = 1 mg single dose (low end of 1 to 50 mg)
[4] = 50 mg single dose (high end of 1 to 50 mg)

CS(=O)(=O)N[C@H]1CCCN2C(=O)COc3ccccc3C3CCC(CC3)OCC12 (stereo partly drawn) [Compound A, N-[(4S,4aR,7α,10α)-1,2,3,4,4a,5,7,8,9,10,16,17-dodecahydro-17-oxo-7,10-ethanopyrido[1,2-d][1,7,4]benzodioxaazacyclotridecin-4-yl]methanesulfonamide]
geometric mean AUC0-inf/D [1, 3]: 11.6 | geometric mean Cmax/D [1, 3]: 3.2 | CL/F ([1]; 1 mg single dose, N = 5): 86.0 L/h | CL/F ([1]; 3 mg single dose, N = 3): 95.6 L/h | CL/F ([1]; 8 mg single dose, N = 4): 96.4 L/h | CL/F ([1]; 15 mg single dose, N = 5): 89.8 L/h | CL/F ([1]; 25 mg single dose): 91.1 L/h | geometric mean AUC0-inf/D [1, 4]: 10.1 | geometric mean Cmax/D [1, 4]: 0.59 | CL/F ([1]; 50 mg single dose, N = 2): 99.3 L/h | AUC(0-t) ([1]; oral, 1 mg single dose): 12.3 ng·h/mL | Cmax ([1]; oral, 1 mg single dose): 3.23 ng/mL | AUC(0-inf) ([1]; oral, 1 mg single dose, N = 5): 11.6 ng·h/mL | half-life ([1]; oral, 1 mg single dose, N = 5): 167 min | Vd/F ([1]; oral, 1 mg single dose, N = 5): 346 L | concentration at 8 h ([1]; oral, 1 mg single dose): 0.337 ng/mL | Tmax ([1]; oral, 1 mg single dose, median, read-out: Tmax): 1.5 h | AUC(0-t) ([1]; oral, 3 mg single dose): 36.6 ng·h/mL | Cmax ([1]; oral, 3 mg single dose): 6.15 ng/mL | AUC(0-inf) ([1]; oral, 3 mg single dose, N = 3): 31.4 ng·h/mL | half-life ([1]; oral, 3 mg single dose, N = 3): 139 min | Vd/F ([1]; oral, 3 mg single dose, N = 3): 318 L | concentration at 8 h ([1]; oral, 3 mg single dose): 1.24 ng/mL | Tmax ([1]; oral, 3 mg single dose, median, read-out: Tmax): 1.5 h | AUC(0-t) ([1]; oral, 8 mg single dose): 81.3 ng·h/mL | Cmax ([1]; oral, 8 mg single dose): 11.5 ng/mL | AUC(0-inf) ([1]; oral, 8 mg single dose, N = 4): 83 ng·h/mL | half-life ([1]; oral, 8 mg single dose, N = 4): 960 min | Vd/F ([1]; oral, 8 mg single dose, N = 4): 2220 L | concentration at 8 h ([1]; oral, 8 mg single dose): 2.47 ng/mL | Tmax ([1]; oral, 8 mg single dose, median, read-out: Tmax): 2 h | AUC(0-t) ([1]; oral, 15 mg single dose): 165 ng·h/mL | Cmax ([1]; oral, 15 mg single dose): 22.1 ng/mL | AUC(0-inf) ([1]; oral, 15 mg single dose, N = 5): 167 ng·h/mL | half-life ([1]; oral, 15 mg single dose, N = 5): 606 min | Vd/F ([1]; oral, 15 mg single dose, N = 5): 1300 L | concentration at 8 h ([1]; oral, 15 mg single dose): 4.07 ng/mL | Tmax ([1]; oral, 15 mg single dose, median, read-out: Tmax): 2.5 h | AUC(0-inf) ([1]; oral, 25 mg single dose): 274 ng·h/mL | AUC(0-t) ([1]; oral, 25 mg single dose): 241 ng·h/mL | Cmax ([1]; oral, 25 mg single dose): 23.1 ng/mL | half-life ([1]; oral, 25 mg single dose): 750 min | concentration at 8 h ([1]; oral, 25 mg single dose): 5.7 ng/mL | Vd/F ([1]; oral, 25 mg single dose): 1650 L | Tmax ([1]; oral, 25 mg single dose, median, read-out: Tmax): 1 h | AUC(0-t) ([1]; oral, 50 mg single dose): 357 ng·h/mL | Cmax ([1]; oral, 50 mg single dose): 29.3 ng/mL | AUC(0-inf) ([1]; oral, 50 mg single dose, N = 2): 503 ng·h/mL | half-life ([1]; oral, 50 mg single dose, N = 2): 440 min | Vd/F ([1]; oral, 50 mg single dose, N = 2): 1050 L | concentration at 8 h ([1]; oral, 50 mg single dose): 7.83 ng/mL | Tmax ([1]; oral, 50 mg single dose, median, read-out: Tmax): 2 h | Tmax ([1]; single oral doses 1 to 50 mg, fasted subjects, read-out: median Tmax, range across doses): 1 to 2.5 h | fold change in geometric mean AUC (AUClast) for 50-fold change in dose ([1]; single doses 1 to 50 mg): 29 fold | fold change in geometric mean Cmax for 50-fold change in dose ([1]; single doses 1 to 50 mg): 9 fold | LS mean difference vs placebo in change from baseline, average MWT sleep latency ([2]; 5 mg): 8.07 min and 8 min | Change from Day −1 in Average Sleep Latency on the MWT, LSM ([2]; 5 mg): 6.35 min | Change from Day −1 in Average Sleep Latency on the MWT, LSM difference vs placebo ([2]; 5 mg): 8.07 min | Average Sleep Latency on the MWT, Change from Day −1, Mean (SD) ([2]; 5 mg): 6.35 (10.348) minutes | Average Sleep Latency on the MWT, Change from Day −1, Median ([2]; 5 mg): 4.75 min | Average Sleep Latency on the MWT, Dosing Day, Mean (SD) ([2]; 5 mg): 28.96 (9.196) minutes | Average Sleep Latency on the MWT, Dosing Day, Median ([2]; 5 mg): 29.13 min | observed mean MWT score over 8-hour period post-dose ([2]; 12 mg): ≥ 30 min | LS mean difference vs placebo in change from baseline, average MWT sleep latency ([2]; 12 mg): 11.05 min and 11 min | Change from Day −1 in Average Sleep Latency on the MWT, LSM ([2]; 12 mg): 9.33 min | Change from Day −1 in Average Sleep Latency on the MWT, LSM difference vs placebo ([2]; 12 mg): 11.05 min | Average Sleep Latency on the MWT, Change from Day −1, Mean (SD) ([2]; 12 mg): 9.33 (11.468) minutes | Average Sleep Latency on the MWT, Change from Day −1, Median ([2]; 12 mg): 7.00 min | Average Sleep Latency on the MWT, Dosing Day, Mean (SD) ([2]; 12 mg): 31.94 (7.814) minutes | Average Sleep Latency on the MWT, Dosing Day, Median ([2]; 12 mg): 32.69 min | observed mean MWT score over 8-hour period post-dose ([2]; 25 mg): ≥ 30 min | LS mean difference vs placebo in change from baseline, average MWT sleep latency ([2]; 25 mg): 17.67 min and 18 min | Change from Day −1 in Average Sleep Latency on the MWT, LSM ([2]; 25 mg): 15.95 min | Change from Day −1 in Average Sleep Latency on the MWT, LSM difference vs placebo ([2]; 25 mg): 17.67 min | Average Sleep Latency on the MWT, Change from Day −1, Mean (SD) ([2]; 25 mg): 15.95 (10.946) minutes | Average Sleep Latency on the MWT, Change from Day −1, Median ([2]; 25 mg): 15.31 min | Average Sleep Latency on the MWT, Dosing Day, Mean (SD) ([2]; 25 mg): 38.56 (2.821) minutes | Average Sleep Latency on the MWT, Dosing Day, Median ([2]; 25 mg): 40.00 min
